Test results published in PubChem BioAssay (NCI).
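Five concentrations, 48 hours, 96-well plates. GI50 is the concentration that inhibits growth by half. TGI: total growth inhibition.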

Experiments:
Experiment in all cases: DTP human tumour cell line panel, 48 h
RXF 393 renal = test system: RXF 393 renal
MDA-MB-435 = test system: MDA-MB-435
HT29 colon = test system: HT29 colon
CAKI-1 renal = test system: CAKI-1 renal
HCT-116 colon = test system: HCT-116 colon
IGROV1 ovarian = test system: IGROV1 ovarian
COLO 205 colon = test system: COLO 205 colon
SK-MEL-28 melanoma = test system: SK-MEL-28 melanoma
SN12C renal = test system: SN12C renal
UO-31 renal = test system: UO-31 renal

| SMILES | TGI (RXF 393 renal) [µM] | TGI (MDA-MB-435) [µM] | TGI (HT29 colon) [µM] | TGI (CAKI-1 renal) [µM] | TGI (HCT-116 colon) [µM] | TGI (IGROV1 ovarian) [µM] | TGI (COLO 205 colon) [µM] | TGI (SK-MEL-28 melanoma) [µM] | TGI (SN12C renal) [µM] | TGI (UO-31 renal) [µM] | GI50 (RXF 393 renal) [µM] | GI50 (MDA-MB-435) [µM] | GI50 (HT29 colon) [µM] | GI50 (CAKI-1 renal) [µM] | GI50 (HCT-116 colon) [µM] | GI50 (UO-31 renal) [µM] | GI50 (IGROV1 ovarian) [µM] | GI50 (COLO 205 colon) [µM] | GI50 (SN12C renal) [µM] | GI50 (SK-MEL-28 melanoma) [µM] |
| --- | --- | --- | --- | --- | --- | --- | --- | --- | --- | --- | --- | --- | --- | --- | --- | --- | --- | --- | --- | --- |
| COc1ccc(-c2coc3cc(OC)cc(O)c3c2=O)cc1 | 83.1 | > 100 | > 100 | > 100 | > 100 | > 100 | > 100 | > 100 | > 100 |  |  |  |  |  |  |  |  |  |  |  |
| CN(C)/C(N)=N/C(N)=S | > 100 |  | > 100 | > 100 | > 100 | > 100 | > 100 | > 100 | > 100 | > 100 |  |  |  |  |  |  |  |  |  |  |
| CCOC(=O)/C=C/c1ccccn1 |  |  | > 100 | > 100 | > 100 | > 100 | > 100 | > 100 | > 100 | > 100 |  |  |  |  |  |  |  |  |  |  |
| O=C(CN1CCN(c2ccc(Cl)cc2)CC1)N1CCN(c2nnc(-c3ccccc3)c(-c3ccccc3)n2)CC1 | > 100 | > 100 | 19.5 | > 100 | > 100 | > 100 | > 100 |  | > 100 | > 100 | 15 | 7.25 | 2.43 | 4.93 | 3.42 | 4.41 | 42.9 | 3.47 | 8.23 |  |
| COc1ccc(C#CCC(OC2OC(CO)C(O)C(O)C2O)C(O)c2ccc(OC)c(OC)c2)cc1OC (configuration not stated) | > 100 |  | > 100 | > 100 | > 100 | > 100 | > 100 | > 100 | > 100 | > 100 |  |  |  |  |  |  |  |  |  |  |
| CC1=C(C(=O)Nc2ccccc2C)C(c2ccc(C3C(C(=O)Nc4ccccc4C)=CNC=C3C(=O)Nc3ccccc3C)cc2)C(C(=O)Nc2ccccc2C)=C(C)N1 | 85.1 |  | 29.3 | 45.7 | > 49.7 | 37.1 | 50.1 | 36.3 | 21.9 | 40 |  |  |  |  |  |  |  |  |  |  |
| Cc1cc2c(cc1C)[n+](=O)c(C(=O)/C=C/c1ccccc1Cl)c(C)n2[O-] |  |  | > 100 | 43.2 |  | 37.9 | 36.9 | 86.8 | > 100 | 48.2 |  |  |  |  |  |  |  |  |  |  |
| CC(C)CC(=O)NS(=O)(=O)c1ccccc1 | > 100 |  | > 100 | > 100 | > 100 | > 100 | > 100 | > 100 | > 100 | > 100 |  |  |  |  |  |  |  |  |  |  |
| CC1=C(c2cc(C(=O)Nc3nccs3)nc(NC#N)n2)Sc2ccccc2N1 |  |  | > 100 | > 100 | > 100 | > 100 | > 100 | > 100 | > 100 | > 100 |  |  |  |  |  |  |  |  |  |  |
| O=C(CCl)Nc1ccc2c(c1)C(=O)c1ccc(NC(=O)CCl)cc1C2=O | 0.928 | 1.81 | 4.21 | 1.98 | 0.768 | 1.15 |  | 1.33 | 1.76 | 1.88 | 0.288 | 0.395 | 0.314 | 0.683 | 0.199 | 0.449 | 0.26 |  | 0.35 | 0.321 |
| COc1ccc(/C(C)=N/NC(N)=S)c(OC)c1 | > 100 |  | > 100 | > 100 | > 100 | > 100 | > 100 | > 100 | > 100 | > 100 |  |  |  |  |  |  |  |  |  |  |
| CC1CCC23COC(=O)C2C(O)CCC3C1(C)CC(O)c1ccoc1 (configuration not stated) | > 100 |  | > 100 |  | > 100 | > 100 | > 100 | > 100 | > 100 | > 100 |  |  |  |  |  |  |  |  |  |  |
| COc1ccc(CNc2nc(NCc3ccc(OC)cc3)c3n[nH]c(C(C)C)c3n2)cc1 | > 100 | 11.1 | 10.7 | > 100 | 22.6 | 13.7 |  | 16 | 27.7 | 15 | 18.6 | 3.17 | 1.61 | 6.44 | 4.06 | 4.81 | 4.38 |  | 9.14 | 2.13 |
| CC1=CC2C(C(C)C)CC1C1C(=O)OC(=O)C21 (configuration not stated) | > 100 | > 100 | > 100 |  | > 100 | > 100 | > 100 | > 100 | > 100 | > 100 |  |  |  |  |  |  |  |  |  |  |
| N#CC1=C(c2ccccc2)C(O)(c2ccccc2)NC1=O (configuration not stated) | > 100 |  | > 100 | > 100 | > 100 | > 100 | > 100 | > 100 | > 100 | > 100 |  |  |  |  |  |  |  |  |  |  |
| O=c1/c(=C/c2ccc3c(c2)OCO3)sc2nnc(-c3ccco3)n12 | > 100 |  |  | > 100 | > 100 | > 100 | > 100 | > 100 | > 100 | > 100 |  |  |  |  |  |  |  |  |  |  |
| COc1cc(-c2cc(CCC(=O)Nc3ccccc3[N+](=O)[O-])n(-c3ccc([N+](=O)[O-])cc3[N+](=O)[O-])n2)ccc1O | > 100 |  | > 10 | > 100 | > 100 | > 100 | > 100 | > 100 | > 100 | > 100 | > 100 |  |  | > 100 | > 100 | > 100 | > 100 | > 100 | > 100 | > 100 |
| COC(=O)NN1C(C)=C(C(=O)OC)C2(CCOC2=O)C1(C)O (configuration not stated) |  |  | > 100 | > 100 | > 100 | > 100 | > 100 | > 100 | > 100 | > 100 |  |  |  |  |  |  |  |  |  |  |
| CN(C)/C=N/c1nc2ncn(CCOC(=O)c3ccccc3)c2c(=O)[nH]1 | > 100 |  | > 100 | > 100 | > 100 | > 100 | > 100 | > 100 | > 100 | > 100 |  |  |  |  |  |  |  |  |  |  |
| CCSc1nc2n(c(=S)n1)CCN2C | 23.7 |  | 37.2 | 55.4 | 33.7 | 45.9 |  | 41.3 | 47.8 | 58.9 |  |  |  |  |  |  |  |  |  |  |
